The test system of test [1] is plasma norepinephrine. Put plainly: Plasma norepinephrine concentration after dosing with droxidopa or droxidopa combinations in rats. It is filed as in vivo, male Sprague Dawley rats. Particulars: versus vehicle alone, 2 hours post-dosing, rat. As to the method: The pharmacokinetic properties of droxidopa combinations useful in the methods of the invention were evaluated in male Sprague Dawley rats.
Administration of droxidopa combinations was seen to affect plasma norepinephrine concentration in comparison to administration of droxidopa alone. Formulation 0 indicates administration of the vehicle alone without droxidopa or a droxidopa combination of the invention and provides a baseline comparative of plasma norepinephrine levels in an untreated subject.

Test [2] concerns MAO-A than MAO-B. Particulars: cited from earlier work.

The values that follow come from patent publication US20130116286A1, “DROXIDOPA AND PHARMACEUTICAL COMPOSITION THEREOF FOR THE TREATMENT OF NEURALLY MEDIATED HYPOTENSION” (Chelsea Therapeutics, Inc., priority 2007, published 2013).

Structures are written as SMILES.

On to `NC(C(=O)O)C(O)c1ccc(O)c(O)c1` (stereo not drawn) [droxidopa, threo-3-(3,4-dihydroxyphenyl)serine], for which the “increase in plasma norepinephrine concentration” value in test [1] is recorded as around 5 fold.

Turning to `O=C(NCCN1CCOCC1)c1ccc(Cl)cc1` [moclobemide], the “selectivity for MAO-A than MAO-B” value in test [2] is “approximately three times more selective for MAO-A than MAO-B”.
